# Test system: ΔrhlI strain expressing WT RhlR
# Experiment: RNA-seq gene expression
# Assay type: cell-based, Pseudomonas aeruginosa
# Parameters: opmD Expression value / mexI Expression value / mexH Expression value / mexG Expression value / lasB Expression value / rhlA Expression value / rhlB Expression value / rhlR Expression value / lecB Expression value / fhp Expression value / chiC Expression value / hcnA Expression value / mvfR Expression value / katB Expression value / norC Expression value / norB Expression value / katA Expression value: unit not given here
# Details: 2 µM C4HSL
# Method: To determine the effects of hypo- and hypersensitivity to C4HSL on RhlR-dependent transcription activation in P. aeruginosa, we performed RNA-seq on ΔrhlI strains expressing WT RhlR, RhlR T58L, and RhlR A44M in the presence of 2 µM C4HSL. We chose this approach to better control the levels of C4HSL across samples. All gene expression analyses were done relative to a ΔrhlI strain without exogenous supplementation of AHL. Thus, we examined the total increase in C4HSL-dependent gene regulation. We observed increased rhlA RNA levels in strains expressing WT RhlR and the RhlR T58L variant compared to ΔrhlI without C4HSL or a strain expressing the RhlR A44M variant (Table 2; Table S1). […] To corroborate our RNA-seq data, we built an rhlA promoter fusion to mScarlet and assayed reporter levels in the same genetic backgrounds as our transcriptomic experiment (Fig. S7D). Strains expressing hypersensitive RhlR variants produced similar levels of fluorescent signal relative to the WT strain, while a strain expressing a hyposensitive RhlR variant had diminished levels of fluorescent reporter (Fig. S7D).
# A total of […] of overnight cultures was back diluted 1:100 in 20 mL of fresh LB media and incubated for 5 h at 37°C with shaking. Cells were harvested by centrifugation, and pellets were frozen until RNA extraction. RNA was extracted using the Invitrogen PureLink RNA Mini Kit. Pellets were resuspended in 100 µL lysozyme solution containing 10 mM Tris-HCl pH 8.0, 0.1 mM EDTA, and 1 mg/mL lysozyme. Five microliters of 1% SDS was added, and the solution was mixed with a vortex and incubated at room temperature for 5 min. A total of 350 µL lysis buffer (Invitrogen) was added with 10 µL 2-mercaptoethanol for each 1 mL of lysis buffer and vortexed. Cells were lysed by bead beating (BioSpec 0.1 MM Zirconia/Silica Beads) for two rounds of 50 s. Lysed cells were transferred to fresh microcentrifuge tubes with 250 µL of 100% ethanol and mixed with a vortex. Samples were spun in spin cartridges (Invitrogen) at 12,000 × g for 15 s at room temperature, and the flow-through was discarded. A total of 700 µL Wash Buffer I (Invitrogen) was added and spun at 12,000 × g for 15 s at room temperature, and the flow-through was discarded. A total of 500 µL Wash Buffer II (Invitrogen) with ethanol was added and centrifuged for 12,000 × g for 15 s at room temperature; the flow-through was discarded, and RNA samples were washed again. Cells were spun at 12,000 × g for 1 min at room temperature to dry the membrane with the bound RNA. A total of 50 µL RNAse-free water was added to the center of the spin cartridge, incubated at room temperature for 1 min, and centrifuged for 2 min at ≥12,000 × g at room temperature. Extracted RNA was then frozen at −80°C until further use.
# Bulk RNA was sent to SeqCenter (Pittsburgh, PA) where it was processed for paired-end Illumina sequencing via rRNA depletion using Ribo-Zero Plus (Illumina). Fastq files generated by SeqCenter were processed using Rockhopper with default settings ([61][–][63]). Briefly, fastq files were aligned to the genome of Pseudomonas aeruginosa UCBPP-PA14. The reads were subsequently normalized using upper-quartile normalization, and transcript abundance was determined by reads per kilobase per million mapped reads. Differential gene expression analysis was conducted using a negative binomial distribution model, outputting a P-value for each transcript. The P-values were then corrected for false discovery using the Benjamini-Hochberg procedure, resulting in the q-values reported here (Table S2). SignalMap v2.0 (NimbleGen Systems) was used to visualize read counts for phzABCDEFG1/2, phzH, phzM, and phzS (Fig. 5). Aligned sequences generated in Rockhopper were converted to GFF files, and genes of interest were isolated into unique GFF files ([37]).
compound,measurement,setting,value
"CCCC(=O)N[C@H]1CCOC1=O [C4HSL, N-butyryl-L-homoserine lactone]",chiC Expression value,,"3,525,171.5"
same,fhp Expression value,,"641,438"
same,hcnA Expression value,,"44,841"
same,katA Expression value,,"14,093,439.5"
same,katB Expression value,,"3,028,118.5"
same,lasB Expression value,,"19,914,902.5"
same,lecB Expression value,,"366,190"
same,mexG Expression value,,"516,840.5"
same,mexH Expression value,,"903,148"
same,mexI Expression value,,"920,093.5"
same,mvfR Expression value,,"301,183"
same,norB Expression value,,"6,989,112.5"
same,norC Expression value,,"3,120,586.5"
same,opmD Expression value,,"631,843.5"
same,phnA Expression value,,"1,160,599.5"
same,phnB Expression value,,"350,722"
same,phzA1 Expression value,,"15,501"
same,phzA2 Expression value,,"238,645"
same,phzB1 Expression value,,"218,602.5"
same,phzB2 Expression value,,"4,517,504"
same,phzC1 Expression value,,"655,136.5"
same,phzC2 Expression value,,"4,730,067"
same,phzD1 Expression value,,"2,329,509"
same,phzD2 Expression value,,"2,063,245.5"
same,phzE1 Expression value,,"4,232,986.5"
same,phzE2 Expression value,,"3,213,651.5"
same,phzF1 Expression value,,"1,981,300.5"
same,phzF2 Expression value,,"1,982,482"
same,phzG1 Expression value,,"560,110.5"
same,phzG2 Expression value,,"2,035,315"
same,phzM Expression value,,"184,602"
same,phzS Expression value,,"726,300.5"
same,pqsA Expression value,,"1,089,687.5"
same,pqsB Expression value,,"2,286,881.5"
same,pqsC Expression value,,"2,211,818.5"
same,pqsD Expression value,,"2,409,895"
same,pqsE Expression value,,"1,210,331"
same,rhlA Expression value,,"1,118,561.5"
same,rhlB Expression value,,"1,056,112.5"
same,rhlR Expression value,,"1,082,023"
same,chiC Log2fold change,vs ΔrhlI without AHL,4.67
same,fhp Log2fold change,vs ΔrhlI without AHL,6.375
same,hcnA Log2fold change,vs ΔrhlI without AHL,0.4821
same,katA Log2fold change,vs ΔrhlI without AHL,2.183
same,katB Log2fold change,vs ΔrhlI without AHL,7.942
same,lasB Log2fold change,vs ΔrhlI without AHL,2.638
same,lecB Log2fold change,vs ΔrhlI without AHL,0.03694
same,mexG Log2fold change,vs ΔrhlI without AHL,6.993
same,mexH Log2fold change,vs ΔrhlI without AHL,6.553
same,mexI Log2fold change,vs ΔrhlI without AHL,5.716
same,mvfR Log2fold change,vs ΔrhlI without AHL,0.3556
same,norB Log2fold change,vs ΔrhlI without AHL,7.423
same,norC Log2fold change,vs ΔrhlI without AHL,7.283
same,opmD Log2fold change,vs ΔrhlI without AHL,6.473
same,phnA Log2fold change,vs ΔrhlI without AHL,−0.9963
same,phnB Log2fold change,vs ΔrhlI without AHL,−0.7095
same,phzA1 Log2fold change,vs ΔrhlI without AHL,−0.9521
same,phzA2 Log2fold change,vs ΔrhlI without AHL,4.504
same,phzB1 Log2fold change,vs ΔrhlI without AHL,−0.627
same,phzB2 Log2fold change,vs ΔrhlI without AHL,4.419
same,phzC1 Log2fold change,vs ΔrhlI without AHL,1.576
same,phzC2 Log2fold change,vs ΔrhlI without AHL,4.692
same,phzD1 Log2fold change,vs ΔrhlI without AHL,3.417
same,phzD2 Log2fold change,vs ΔrhlI without AHL,3.452
same,phzE1 Log2fold change,vs ΔrhlI without AHL,3.384
same,phzE2 Log2fold change,vs ΔrhlI without AHL,3.413
same,phzF1 Log2fold change,vs ΔrhlI without AHL,3.113
same,phzF2 Log2fold change,vs ΔrhlI without AHL,3.107
same,phzG1 Log2fold change,vs ΔrhlI without AHL,1.459
same,phzG2 Log2fold change,vs ΔrhlI without AHL,4.193
same,phzM Log2fold change,vs ΔrhlI without AHL,−0.9094
same,phzS Log2fold change,vs ΔrhlI without AHL,−0.04329
same,pqsA Log2fold change,vs ΔrhlI without AHL,−1.279
same,pqsB Log2fold change,vs ΔrhlI without AHL,−0.7204
same,pqsC Log2fold change,vs ΔrhlI without AHL,−0.7931
same,pqsD Log2fold change,vs ΔrhlI without AHL,−0.874
same,pqsE Log2fold change,vs ΔrhlI without AHL,−1.056
same,rhlA Log2fold change,vs ΔrhlI without AHL,2.147
same,rhlB Log2fold change,vs ΔrhlI without AHL,2.998
same,rhlR Log2fold change,vs ΔrhlI without AHL,0.762
